Data on one molecule can be found in patent publication EP4670735A1, “PRODRUG NANOPARTICLE FOR TUMOR-TARGETED ULTRASOUND-[…] THERAPY” (Schleuning, Christian, priority 2024, dated 2025).

In data set [1] the test system is human breast cancer (MCF-7) cells. The data set is described as follows: Cytotoxicity (MTT) in the dark or upon exposure to ultrasound radiation. It is filed as cell-based. The note with it: 4 h incubation, then 44 h, concentrations correspond to the platinum complex. As for the experimental part:
(§1) 6 × 10^3 cells were seeded onto 96-well plates and allowed to adhere overnight. The cells were treated with increasing concentrations of the compound which was diluted in cell media to a total volume of 200 µL. The cells were incubated with the compound for 4 h and after this time the medium refreshed. The cells for the dark group were grown for an additional 44 h at 37 °C. The cells for the ultrasound group were exposed to ultrasound radiation (1.5 W/cm^2, 2 min) with an Intelect Mobile 2 Ultrasound Emitter (DJO Global). The cells for the ultrasound group were grown for an additional 44 h at 37 °C. After this incubation time, the culture medium was substituted with PBS buffer containing 3-(4,5-dimethylthiazol-2-yl)-2,5-diphenyltetrazolium bromide (MTT) with a final concentration of 12 µM. The cells were incubated for 2 h at 37 °C and 10 % CO2 After this time, the DPBS-MTT mixture was removed and the wells filled with 200 µL DMSO. Using a 620 nm reference wavelength, the absorption of the formazan was measured at 550 nm with an Infinite M Nano plus Microplate reader (Tecan).
(§2) In contrast, the nanoparticles induced a cytotoxic effect upon exposure to ultrasound radiation. Table 1 reflects the respective data, which are also visualized in Fig. 3. Table 1: Cytotoxicity (IC50 in µM) of oxaliplatin, NP-Pt-1 and NP-Pt-2 in the dark or upon exposure to ultrasound radiation in mouse colon carcinoma (CT-26) and human breast cancer (MCF-7) cells. The mentioned concentrations correspond to the platinum complex.

In data set [2] the test system is mouse colon carcinoma (CT-26) cells. The description is as above. It is filed as cell-based. The note with it: 4 h incubation, then 44 h, concentrations correspond to the platinum complex. On the procedure:
as §1, §2

Molecules are shown by their SMILES.

Consider `O=C1[O][Pt]2([NH][C@@H]3CCCC[C@H]3[NH]2)[O]C1=O` [Oxaliplatin], for which the IC50 in data set [1] (MCF-7, dark, 2880 min) worked out at 24.5 ± 4.6 µM; in data set [1] (MCF-7, ultrasound (1.5 W/cm^2, 2 min)), 22.4 ± 4.8 µM; in data set [2] (CT-26, dark, 2880 min), 20.4 ± 3.1 µM; in data set [2] (CT-26, ultrasound (1.5 W/cm^2, 2 min)) it was 19.3 ± 3.4 µM.

For orientation: IC50 means the concentration that gives 50% inhibition. The low end stands for greater potency in that assay, the high end for weaker potency in that assay.
